Results reported in patent US20170283396A1, “DIAMINOHETEROARYL SUBSTITUTED INDAZOLES” (Bayer Pharma Aktiengesellschaft, priority 2013, published 2017).
Where two headings read alike, the source gives them in different places.

Key:
[1] = target: T1, catalytic domain of human Bub1 (amino acids 704-1085) (Homo sapiens, UniProt O43683); assay: Bub1 kinase assay (TR-FRET); assay type: biochemical
T1 construct: catalytic domain of human Bub1 (amino acids 704-1085); His6 (N); made in house; host or cells: Hi5 insect cells
Description: To this end, 100-fold concentrated compound solutions (in DMSO) were previously prepared by serial dilution (1:3.4) of 2 mM stocks in a clear low volume 384-well source microtiter plate (Greiner Bio-One, Frickenhausen, Germany), from which 50 nl of compounds were transferred into a black low volume test microtiter plate from the same supplier. […] The resulting mixture (5 μL final volume) was incubated at […] during 60 min., and the reaction was stopped by the addition of 5 μL of an aqueous EDTA-solution (50 mM EDTA, in 100 mM HEPES pH 7.5 and 0.2% (w/v) bovine serum albumin) which also contained the TR-FRET detection reagents (0.2 μM streptavidin-XL665 [Cisbio Bioassays, Codolet, France] and 1 nM anti-phosho-Serine antibody [Merck Millipore, cat. #35-001] and 0.4 nM LANCE EU-W1024 labeled anti-mouse IgG antibody [Perkin-Elmer, product no. AD0077, alternatively a Terbium-cryptate-labeled anti-mouse IgG antibody from Cisbio Bioassays can be used]). The stopped reaction mixture was further incubated 1 h at 22° C. in order to allow the formation of complexes between peptides and detection reagents. Subsequently, the amount of product was evaluated by measurement of the resonance energy transfer from the Eu-chelate-antibody complex recognizing the Phosphoserine residue to the streptavidin-XL665 bound to the biotin moiety of the peptide. […] IC50 values were calculated by fitting the normalized inhibition data to a 4-parameter logistic equation (Minimum, Maximum, IC50, Hill; Y=Max+(Min−Max)/(1+(X/IC50)Hill)).

[2] = system: HeLa cell line; assay: Proliferation assay (HeLa cell line); assay type: cell-based; settings: Homo sapiens, 96 h, read-out: Biological Assay 2: Proliferation assay (HeLa cell line) median IC50
Description: Cultivated tumor cells (cells were ordered from ATCC, except HeLa-MaTu and HeLa-MaTu-ADR, which were ordered from EPO-GmbH, Berlin) were plated at a density of 1000 to 5000 cells/well, depending on the growth rate of the respective cell line, in a 96-well multititer plate in 200 μL of their respective growth medium supplemented 10% fetal calf serum. After 24 hours, the cells of one plate (zero-point plate) were stained with crystal violet (see below), while the medium of the other plates was replaced by fresh culture medium (200 μL), to which the test substances were added in various concentrations (0 μM, as well as in the range of 0.001-10 μM; the final concentration of the solvent dimethyl sulfoxide was 0.5%). The cells were incubated for 4 days in the presence of test substances. Cell proliferation was determined by staining the cells with crystal violet: the cells were fixed by adding 20 μl/measuring point of an 11% glutaric aldehyde solution for 15 minutes at room temperature. After three washing cycles of the fixed cells with water, the plates were dried at room temperature. The cells were stained by adding 100 μl/measuring point of a 0.1% crystal violet solution (pH 3.0). After three washing cycles of the stained cells with water, the plates were dried at room temperature. The dye was dissolved by adding 100 μl/measuring point of a 10% acetic acid solution. Absorption was determined by photometry at a wavelength of 595 nm. The change of cell number, in percent, was calculated by normalization of the measured values to the absorption values of the zero-point plate (=0%) and the absorption of the untreated (0 μm) cells (=100%). The IC50 values were determined by means of a 4 parameter fit using the company's own software.

[3] = cervical cancer, 4 days incubation, crystal violet staining
[4] = TR-FRET, 10 μM ATP, 1 μM peptide substrate, read-out: Biological Assay 1: Bub1 kinase assay median IC50

T1 sequence (O43683 704-1085): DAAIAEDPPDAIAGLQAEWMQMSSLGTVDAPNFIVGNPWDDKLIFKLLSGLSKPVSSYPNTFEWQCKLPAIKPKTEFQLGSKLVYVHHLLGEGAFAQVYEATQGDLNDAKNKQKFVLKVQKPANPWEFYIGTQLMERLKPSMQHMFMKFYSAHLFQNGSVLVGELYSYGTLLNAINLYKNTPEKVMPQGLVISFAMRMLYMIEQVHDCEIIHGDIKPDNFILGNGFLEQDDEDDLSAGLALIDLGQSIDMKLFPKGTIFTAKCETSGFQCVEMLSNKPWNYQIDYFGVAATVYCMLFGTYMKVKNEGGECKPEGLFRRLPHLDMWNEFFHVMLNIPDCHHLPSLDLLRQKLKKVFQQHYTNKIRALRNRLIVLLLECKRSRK

IC50 [1]	IC50 [2, 3]	IC50 [1, 4]	IC50 [2]	SMILES
280 nM	> 10000 nM	–	–	CCNC(=O)Nc1nc(-c2nn(Cc3c(F)cc(OCC)cc3F)c3ccccc23)nc(Nc2ccncn2)c1N1CCOCC1 [Example 2-3-8, 1-{2-[1-(4-ethoxy-2,6-difluorobenzyl)-1H-indazol-3-yl]-5-(morpholin-4-yl)-6-(pyrimidin-4-ylamino)pyrimidin-4-yl}-3-ethylurea]
98 nM	–	–	–	CCOc1cc(F)c(Cn2nc(-c3nc(Nc4ccncn4)c(N4CCOCC4)c(Nc4ccncn4)n3)c3ccccc32)c(F)c1 [Example 2-4-4, 2-[1-(4-ethoxy-2,6-difluorobenzyl)-1H-indazol-3-yl]-5-(morpholin-4-yl)-N,N′-di(pyrimidin-4-yl)pyrimidine-4,6-diamine]
–	–	18000 nM	–	CC(=O)Nc1cc(N(c2ccncc2)c2ccncc2)nc(-c2nn(Cc3ccccc3F)c3ccccc23)n1 [Example 2-2-3, N-{6-(dipyridin-4-ylamino)-2-[1-(2-fluorobenzyl)-1H-indazol-3-yl]-pyrimidin-4-yl}acetamide]
–	–	4.3 nM	3600 nM	CCOc1cc(F)c(Cn2nc(-c3nc(N)c(N4CCOCC4)c(Nc4ccncc4)n3)c3ccccc32)c(F)c1 [Example 2-3-3, 2-[1-(4-ethoxy-2,6-difluorobenzyl)-1H-indazol-3-yl]-5-(morpholin-4-yl)-N-(pyridin-4-yl)pyrimidine-4,6-diamine]
130 nM	≥ 10000 nM	–	–	CCNC(=O)Nc1nc(-c2nn(Cc3c(F)cc(OCC)cc3F)c3ccccc23)nc(Nc2ccncc2)c1N1CCOCC1 [Example 2-3-4, 1-{2-[1-(4-ethoxy-2,6-difluorobenzyl)-1H-indazol-3-yl]-5-(morpholin-4-yl)-6-(pyridin-4-ylamino)pyrimidin-4-yl}-3-ethylurea]
–	–	81 nM	–	CCOc1cc(F)c(Cn2nc(-c3nc(Nc4ccncc4)cc(Nc4ccncc4)n3)c3ccccc32)c(F)c1 [Example 2-4-1, 2-[1-(4-ethoxy-2,6-difluorobenzyl)-1H-indazol-3-yl]-N,N′-di(pyridine-4-yl)pyrimidine-4,6-diamine]
–	–	22 nM	≥ 10000 nM	CCOc1cc(F)c(Cn2nc(-c3nc(Nc4ccncn4)c(NC(=O)COC)c(Nc4ccncn4)n3)c3ccccc32)c(F)c1 [Example 2-4-9, N-{2-[1-(4-ethoxy-2,6-difluorobenzyl)-1H-indazol-3-yl]-4,6-bis(pyrimidin-4-ylamino)pyrimidin-5-yl}-2-methoxyacetamide]
–	≥ 10000 nM	–	–	CCOc1cc(F)c(Cn2nc(-c3nc(Nc4ccncc4)c(OCCOC)c(Nc4ccncc4)n3)c3ccccc32)c(F)c1 [Example 2-4-6, 2-[1-(4-ethoxy-2,6-difluorobenzyl)-1H-indazol-3-yl]-5-(2-methoxyethoxy)-N,N′-di(pyridin-4-yl)pyrimidine-4,6-diamine]
–	–	11 nM	7800 nM	CCOc1cc(F)c(Cn2nc(-c3nc(N)c(NC(=O)COC)c(Nc4ccncc4)n3)c3ccccc32)c(F)c1 [Example 2-3-13, N-{4-amino-2-[1-(4-ethoxy-2,6-difluorobenzyl)-1H-indazol-3-yl]-6-(pyridin-4-ylamino)pyrimidin-5-yl}-2-methoxyacetamide]
–	–	2100 nM	–	CCOc1cc(F)c(Cn2nc(-c3nc(Nc4ccncc4)c(NS(=O)(=O)C(F)(F)F)c(Nc4ccncc4)n3)c3ccccc32)c(F)c1 [Example 2-4-11, N-{2-[1-(4-ethoxy-2,6-difluorobenzyl)-1H-indazol-3-yl]-4,6-bis(pyridin-4-ylamino)pyrimidin-5-yl}-1,1,1-trifluoromethanesulfonamide]
–	–	6.4 nM	1300 nM	CCOc1cc(F)c(Cn2nc(-c3nc(N)cc(Nc4ccncc4)n3)c3ccccc32)c(F)c1 [Example 2-3-1, 2-[1-(4-ethoxy-2,6-difluorobenzyl)-1H-indazol-3-yl]-N-(pyridin-4-yl)pyrimidine-4,6-diamine]
–	–	19 nM	≥ 10000 nM	CCOc1cc(F)c(Cn2nc(-c3nc4c(c(Nc5ccncn5)n3)OCC(=O)N4)c3ccccc32)c(F)c1 [Example 2-3-18, 2-[1-(4-ethoxy-2,6-difluorobenzyl)-1H-indazol-3-yl]-4-(pyrimidin-4-ylamino)-6H-pyrimido[5,4-b][1,4]oxazin-7(8H)-one]
–	–	5.8 nM	2900 nM	CCOc1cc(F)c(Cn2nc(-c3nc(N)nc(Nc4ccncc4)n3)c3ccccc32)c(F)c1 [Example 2-3-9, 6-[1-(4-ethoxy-2,6-difluorobenzyl)-1H-indazol-3-yl]-N-(pyridin-4-yl)-1,3,5-triazine-2,4-diamine]
–	–	710 nM	≥ 10000 nM	CCOc1cc(F)c(Cn2nc(-c3nc(Nc4ccncc4)c(NS(=O)(=O)CC)c(Nc4ccncc4)n3)c3ccccc32)c(F)c1 [Example 2-4-10, N-{2-[1-(4-ethoxy-2,6-difluorobenzyl)-1H-indazol-3-yl]-4,6-bis(pyridin-4-ylamino)pyrimidin-5-yl}ethanesulfonamide]
> 20000 nM	≥ 10000 nM	–	–	CC(=O)Nc1cc(Nc2ccncc2)nc(-c2nn(Cc3ccccc3F)c3ccccc23)n1 [Example 2-2-1, N-{2-[1-(2-fluorobenzyl)-1H-indazol-3-yl]-6-(pyridin-4-ylamino)pyrimidin-4-yl}acetamide]
–	–	5.3 nM	7800 nM	CCOc1cc(F)c(Cn2nc(-c3nc(N)cc(Nc4ccncn4)n3)c3ccccc32)c(F)c1 [Example 2-3-5, 2-[1-(4-ethoxy-2,6-difluorobenzyl)-1H-indazol-3-yl]-N-(pyrimidin-4-yl)pyrimidine-4,6-diamine]
–	–	220 nM	2500 nM	CCOc1cc(F)c(Cn2nc(-c3nc(Nc4ccncc4)c(NC(=O)COC)c(Nc4ccncc4)n3)c3ccccc32)c(F)c1 [Example 2-4-8, N-{2-[1-(4-ethoxy-2,6-difluorobenzyl)-1H-indazol-3-yl]-4,6-bis(pyridin-4-ylamino)pyrimidin-5-yl}-2-methoxyacetamide]
–	–	5.8 nM	≥ 10000 nM	CCOc1cc(F)c(Cn2nc(-c3nc(N)c(NS(=O)(=O)CC)c(Nc4ccncc4)n3)c3ccccc32)c(F)c1 [Example 2-3-15, N-{4-amino-2-[1-(4-ethoxy-2,6-difluorobenzyl)-1H-indazol-3-yl]-6-(pyridin-4-ylamino)pyrimidin-5-yl}ethanesulfonamide]
> 20000 nM	–	–	–	COCC(=O)Nc1cc(N(c2ccncc2)c2ccncc2)nc(-c2nn(Cc3ccccc3F)c3ccccc23)n1 [Example 2-2-4, N-{6-(dipyridin-4-ylamino)-2-[1-(2-fluorobenzyl)-1H-indazol-3-yl]pyrimidin-4-yl}-2-methoxyacetamide]
–	–	8.3 nM	3800 nM	CCOc1cc(F)c(Cn2nc(-c3nc(N)c(OC)c(Nc4ccncc4)n3)c3ccccc32)c(F)c1 [Example 2-3-2, 2-[1-(4-ethoxy-2,6-difluorobenzyl)-1H-indazol-3-yl]-5-methoxy-N-(pyridin-4-yl)pyrimidine-4,6-diamine]
–	≥ 10000 nM	–	–	CCOc1cc(F)c(Cn2nc(-c3nc(Nc4ccncn4)c(OCCOC)c(Nc4ccncn4)n3)c3ccccc32)c(F)c1 [Example 2-4-7, 2-[1-(4-ethoxy-2,6-difluorobenzyl)-1H-indazol-3-yl]-5-(2-methoxyethoxy)-N,N′-di(pyrimidin-4-yl)pyrimidine-4,6-diamine]
–	–	8.7 nM	≥ 10000 nM	CCOc1cc(F)c(Cn2nc(-c3nc(N)c(NS(=O)(=O)C(F)(F)F)c(Nc4ccncc4)n3)c3ccccc32)c(F)c1 [Example 2-3-16, N-{4-amino-2-[1-(4-ethoxy-2,6-difluorobenzyl)-1H-indazol-3-yl]-6-(pyridin-4-ylamino)pyrimidin-5-yl}-1,1,1-trifluoromethanesulfonamide]
–	–	6.5 nM	–	CCOc1cc(F)c(Cn2nc(-c3nc(N)c(OC)c(Nc4ccncn4)n3)c3ccccc32)c(F)c1 [Example 2-3-6, 2-[1-(4-ethoxy-2,6-difluorobenzyl)-1H-indazol-3-yl]-5-methoxy-N-(pyrimidin-4-yl)pyrimidine-4,6-diamine]
